Data taken from US8791064B2, “Beta-lactoglobulin-polysaccharide nanoparticles for hydrophobic bioactive compounds” (Technion Research and Development Foundation Ltd., priority 2008, dated 2014).
“And” between values parts separate entries of the source, which are not always exact repeats. Equal values may be shown once. Read-outs that look alike come from different tables or passages of the source. Each block holds one compound with its values, some of them ahead of it.

Columns and labels:
[1] = cited from earlier work; for pI of β-lactoglobulin: literature value (Jameson et al., 2002)
[2] = Partition of vitamin D2 between nanocomplex pellet and serum (ultracentrifugation, RP-HPLC); type: physicochemical
Description: To evaluate the encapsulation of the vitamin within the nanoparticles, the partition of the vitamin between the particles and the serum was studied. For this purpose, an ultra centrifuge (15,000×g) was used to separate the nanocomplexes (pellet) from the serum (supernatant), and the concentration of vitamin D2 in the pellet was compared to that in the serum. Vitamin content of particles and serum was analyzed by solvent extraction followed by reversed phase HPLC, according to the method described in Semo et al., 2007, Food Hydrocolloids 21:936. […] Therefore, vitamin concentration in the nanoparticle pellet was 55 times higher than vitamin concentration in the serum, and 5.7 times higher than the initial concentration of the vitamin in the dispersion (13.5 μg mL^−1).

[3] = Vitamin D2 accelerated shelf-life stress test at 30° C.; type: physicochemical; conditions: pH 4.25, 30° C., 125 hours
Description: FIG. 7: Effect of encapsulation on stability of vitamin D during an accelerated shelf-life stress test at pH 4.25: samples were stored at 30° C. in closed vials containing 10 mL of solution and 10 mL of air, for a period of 125 hours: (▪) VD2-loaded β-lactoglobulin) (▴) complexes of VD2-β-lactoglobulin-pectin (pH 4.25). (♦) control of unprotected VD2 in water.

[4] = Electrophoretic mobility / zeta potential; type: physicochemical
Text: Four criteria were used in order to evaluate the β-lactoglobulin-polysaccharide nanocomplexes and find the conditions (pH and ratio) which yield transparent suspensions containing small and stable nanoparticles: Sedimentation—Qualitative observation of the solutions in glass vials, following overnight equilibration at room temperature; Turbidity—Measured by an Ultrospec 3000 spectrophotometer (GE Healthcare, Life Sciences, UK), at 600 nm using 1 cm path cuvettes: Samples were vortexed prior to analysis; Electrophoretic mobility (EM or μe)—Measured using a zeta potential/particle size analyzer NICOMP™ 380 (Particle Sizing Systems Ltd. Santa Barbara, Calif., Agilent Technologies Inc., USA). The EM was measured under a 3 V/cm e-field at 25° C.; and Particle size—measured by Dynamic Light Scattering using the NICOMP™380 at 23° C. using 0.933 cp for the viscosity of the medium.
The stability of these colloidal systems was studied by measuring the electrophoretic mobility (EM) of the colloidal particles (FIGS. 12 and 13). Because the ionic strength of the studied systems was very low, and the particles are both very small and “soft” (being aggregates of oppositely charged polymers), the precise calculation of zeta potential from EM is not possible, due to the complexity of the system, and the limitations of currently available theoretical models. […]

Compound: CC/C=C\C/C=C\C/C=C\C/C=C\C/C=C\C/C=C\CCC(=O)O [DHA, docosahexaenoic acid]
pKa of DHA ([1]; Namani et al., 2007): ≈ 8.5

vitamin concentration in the nanoparticle pellet relative to the initial concentration in the dispersion ([2]; initial concentration 13.5 μg mL^−1): 5.7 times higher | Vitamin D2 concentration in the supernatant (serum) ([2]; β-lactoglobulin-pectin nanocomplex dispersion centrifuged at 15,000×g): 1.4 µg/mL | vitamin concentration in the nanoparticle pellet relative to the serum ([2]; β-lactoglobulin-pectin nanocomplexes): 55 times higher | Vitamin D2 concentration in the pellet ([2]; β-lactoglobulin-pectin nanocomplexes separated at 15,000×g, initial concentration 13.5 μg mL^−1): 77.26 µg/mL | degradation of the vitamin (ranking) ([3]; unprotected control, vitamin D dispersion in water): fastest degradation rate | degradation of the vitamin (ranking) ([3]; vitamin D2 in β-lactoglobulin-pectin nanocomplexes, closed vials with 10 mL air): slowest degradation
Compound: C=C1CC[C@H](O)C/C1=C/C=C1\CCC[C@]2(C)[C@@H]([C@H](C)/C=C/[C@H](C)C(C)C)CC[C@@H]12 [Vitamin D2, ergocalciferol]

Compound: β-lactoglobulin: bovine β-lactoglobulin isolate (Davisco), major whey protein, 18.4 kDa
isoelectric point from electrophoretic mobility versus pH ([4]; 0.05% β-lactoglobulin alone, 25° C., low ionic strength (FIG. 13)): 5.2 | zeta potential ([4]; pure β-lactoglobulin 0.05% wt, no pectin, pH 3.5 to 4.5): +6 mV | pI of β-lactoglobulin [1]: 5.18 and 5.1 | pI of β-lactoglobulin ([1]; listed as lactoglobulin): 5.18
